From publication PMC6599006, “Rational design using sequence information only produces a peptide that binds to the intrinsically disordered region of p53” (Scientific Reports, 2019)
Peptide text beside a SMILES is read from it.

Key:
[1] = tested on: FL-p53 binding to nspDNA (random sequence); experiment: Fluorescence anisotropy titration of FL-p53 against nspDNA in the presence of peptide; assay type: biochemical, human
Text: (§1) We prepared FL-p53, TetCT mutant, and CoreTet mutant as described previously. For FL-p53, the thermostable and cysteine-modified mutant of human p53 (C124A, C135V, C141V, W146Y, C182S, V203A, R209P, C229Y, H233Y, Y234F, N235K, Y236F, T253V, N268D, C275A, C277A, K292C) was used[11]. The TetCT mutant corresponds to residues 293−393 of human p53 with an additional N-terminal cysteine. The CoreTet mutant corresponds to residues 1–363 of FL-p53[12]. Expression and purification of the three mutants was conducted as previously described[11],[12]. Briefly, all mutants with a GST tag were expressed in Escherichia coli and were collected from a GST column after cleavage of the GST tag and further purified by using a heparin column. The DNA binding ability of all mutants was confirmed by titration experiments as described elsewhere[10]–[12]. […]
(§2) The fluorescence anisotropy of fluorescent CT peptide or DNA was measured at 25 °C using a fluorescence spectrometer (FP-6500, JASCO Co., Tokyo, Japan) with an automatic titrator and home-build autorotating polarizer. […] For p53 mutants, the concentration was calculated for the tetramer.

[2] = molecular target: T1, CT peptide (residues 367–393 of human p53) (Homo sapiens, UniProt P04637); experiment: Fluorescence anisotropy titration of peptides against FAM-labeled CT peptide of p53; assay type: binding; conditions: absence of salt; versus Wmot2, Cul7, WS100B peptides
T1 construct: CT peptide (residues 367–393 of human p53) labeled with FAM at the N-terminus; purchased Toray Research Center Inc., Tokyo, Japan; host or cells: chemical synthesis
Description: To test how well our method worked, we titrated the designed peptides against the CT peptide (residues 367–393) labeled with a fluorescent dye, FAM, using a fluorometer with fluorescence anisotropy[11]
The fluorescence anisotropy of fluorescent CT peptide or DNA was measured at 25 °C using a fluorescence spectrometer (FP-6500, JASCO Co., Tokyo, Japan) with an automatic titrator and home-build autorotating polarizer[11]. […] The titration curves were fitted by the following equations:1 robs=rA(cA−cAB)/cA+rABcAB/cA, 2 cAB=(cA+cB+KD)−(cA+cB+KD)^2−4cAcB/2, where robs, rA, rAB, KD, cA, and cB are the observed anisotropy, anisotropy of free molecule A, anisotropy of the complex between molecules A and B, dissociation constant, total concentration of molecule A and total concentration of molecule B, respectively. For p53 mutants, the concentration was calculated for the tetramer.

[3] = tested on: FL-p53 binding to spDNA (p21); experiment: Fluorescence anisotropy titration of FL-p53 against spDNA in the presence of peptide; assay type: biochemical, human; conditions: saturated at 300 μM DP6
Text: as §1, §2

[4] = tested on: TetCT mutant of p53 binding to nspDNA (random sequence); experiment: Fluorescence anisotropy titration of TetCT mutant against nspDNA in the presence of DP6; assay type: biochemical, human; conditions: at more than 150 μM DP6; 100 mM KCl
Description: (§3) The solution used here included 100 mM KCl to mimic physiological conditions.
as §1, §2

[5] = molecular target: T2, FL-p53 labeled with Atto532 sliding along nspDNA (λDNA array) (Homo sapiens, UniProt P04637, C124A/C135V/C141V/C182S/C229Y/C275A/C277A/H233Y/K292C/N235K/N268D/R209P/T253V/V203A/W146Y/Y234F/Y236F); experiment: Single-molecule fluorescence measurement of 1D sliding of FL-p53 along DNA (DNA garden); assay type: biochemical; conditions: displacement analysis, time interval 165 ms; for Fraction of fast sliding mode of FL-p53: 100 mM KCl, 2 mM MgCl2, pH 7.9
T2 construct: we prepared three p53 constructs: full-length p53 (FL-p53); GST (cleaved yes); made in house; host or cells: Escherichia coli
Description: The 1D sliding of FL-p53 labeled with Atto532 along DNA was measured by a custom-built TIRF microscope, as described previously[11],[39]. The λDNA array tethered on the coverslip of the flow cell was constructed using microcontact printing as described previously[39]. FL-p53 was labeled with Atto532 as described elsewhere[11]. FL-p53 with Atto532 at 2–4 nM was introduced into the flow cell with the DNA array by a syringe pump and measured at a flow rate of 500 μL/min, corresponding to 90% extension of λDNA. […] The experiments were conducted immediately after the dilution of FL-p53 from the stock solution at more than 10 μM and finished within 50 min to prevent the dissociation of the tetramer[40]. The analysis was described previously[11]. For distribution analysis, the following fitting equation was used:3 P(δx)=∑i=12Ai/4πDiδtexp(−(δx+viδt)^2/4Diδt), where P(δx), δt, δx, Ai, vi, and Di are the occurrence of δx, time interval, displacement in the time interval, amplitude of the ith mode, drift velocity of the ith mode, and diffusion coefficient of the ith mode, respectively.

[6] = tested on: CoreTet mutant of p53 binding to spDNA (p21); experiment: Fluorescence anisotropy titration of CoreTet mutant against spDNA in the presence of DP6; assay type: biochemical, human; conditions: 600 μM DP6
Description: as §3, §1, §2

| Compound | effect on the affinity of FL-p53 for DNA ([1]; DP5, nspDNA and spDNA (Fig. S7, Table S2)) | increase of the KD of FL-p53 for nspDNA ([1]; at 600 μM than at 0 μM DP6) | KD of DP6 with respect to the CT domain, times stronger than the KD of the natural peptides [2] | increase of the KD of FL-p53 for spDNA [3] | anisotropy change for nspDNA on titration of TetCT mutant [4] | Fraction of slow sliding mode of FL-p53 ([5]; [DP6] 300) | Fraction of fast sliding mode of FL-p53 ([5]; [DP6] 300) | Fraction of slow sliding mode of FL-p53 ([5]; [DP6] 600) | Fraction of fast sliding mode of FL-p53 ([5]; [DP6] 600) | effect on binding of the CoreTet mutant to spDNA [6] |
| --- | --- | --- | --- | --- | --- | --- | --- | --- | --- | --- |
| NC(=O)C[C@H](NC(=O)[C@H](CC(N)=O)NC(=O)[C@H](CC(=O)O)NC(=O)[C@H](CCC(=O)O)NC(=O)[C@H](CCC(=O)O)NC(=O)[C@H](CCC(=O)O)NC(=O)[C@@H](N)CCC(=O)O)C(=O)N[C@@H](CC(=O)O)C(=O)N[C@@H](CC(=O)O)C(=O)N[C@@H](CC(=O)O)C(=O)N[C@@H](CCC(=O)O)C(=O)N[C@@H](CCC(=O)O)C(=O)N[C@@H](CCC(=O)O)C(=O)O [DP5] (H-EEEEDNNDDDEEE-OH) | did not affect the affinity of FL-p53 | – | – | – | – | – | – | – | – | – |
| NC(=O)C[C@H](NC(=O)[C@H](CC(N)=O)NC(=O)[C@H](CC(=O)O)NC(=O)[C@H](CCC(=O)O)NC(=O)[C@H](CCC(=O)O)NC(=O)[C@H](CCC(=O)O)NC(=O)[C@H](CCC(=O)O)NC(=O)[C@@H](N)CCC(=O)O)C(=O)N[C@@H](CC(=O)O)C(=O)N[C@@H](CC(=O)O)C(=O)N[C@@H](CC(=O)O)C(=O)N[C@@H](CCC(=O)O)C(=O)N[C@@H](CCC(=O)O)C(=O)N[C@@H](CCC(=O)O)C(=O)N[C@@H](Cc1c[nH]c2ccccc12)C(=O)N[C@@H](Cc1ccccc1)C(=O)O [DP6] | – | 7 fold | at least 12 times | 3 fold | no significant change in anisotropy | 54 ± 1% | 46 ± 2% | 31 ± 2% | 69 ± 1% | did not weaken the binding |
